Test results from PMC6009935 (Journal of Enzyme Inhibition and Medicinal Chemistry, 2017).

What was measured:
[1] = system: thermal nociception; assay: Hot plate test after i.c.v. injection; assay type: in vivo, mice; conditions: i.c.v. 1, 5 and 10 µg/mouse; 15-90 min
Protocol: (§1) In vivo nociception tests
(§2) Male CD-1 mice (Harlan, Italy) weighting 25-30 g were used for all experiments. Mice were housed for at least 1 week before the experimental sessions in colony cages (7 mice in each cage) under standard light (from 7.00 a.m. to 7.00 p.m.), temperature (21±1°C), relative humidity (60±10%) with food and water available ad libitum. The research protocol was approved by the Service for Biotechnology and Animal Welfare of the Istituto Superiore di Sanità and authorized by the Italian Ministry of Health, according to Legislative Decree 26/14, which implemented the European Directive 2010/63/UE on laboratory animal protection in Italy. […]
(§3) In the case of hot plate test, the thermal nociception was assessed with a commercially available apparatus consisting in a metal plate 25x25 cm (Ugo Basile, Italy) heated to a constant temperature of 55±0.1°C, on which a plastic cylinder (20 cm diameter, 18 cm high) was placed. The time of latency (s) was recorded from the moment the animal was inserted inside the cylinder up to when it licked its paws or jerked them off the hot plate; jumped off the hot plate; the latency exceeded the cut-off time of 60 s. The baseline was calculated as mean of three readings recorded before testing at intervals of 15-30 min. The time course of latency was then determined at 15, 30, 45, 60, and 90 min after treatment. […]

[2] = system: thermal nociception; assay: Tail flick test after i.c.v. injection; assay type: in vivo, mice; conditions: i.c.v. 1, 5 and 10 µg/mouse; 15-90 min
Protocol: as §1, §2, §3

Cc1c(C(=O)NC2CCN(C(=O)[C@H](Cc3ccccc3)NC(=O)CNC(=O)[C@@H](C)NC(=O)[C@@H](N)Cc3ccc(O)cc3)CC2)nn(-c2ccc(Cl)cc2Cl)c1-n1cccc1 [Compound 9]
behavioral response to thermal nociceptive stimuli, hot plate test [1]: no difference in treatments | latency of the nociceptive response, tail flick test [2]: absence of effect
